Reference: patent US20250243210A1, “CRBN E3 LIGASE LIGAND COMPOUND, PROTEIN DEGRADER DEVELOPED BASED THEREON AND THEIR APPLICATIONS” (GLUETACS THERAPEUTICS (SHANGHAI) CO., LTD., priority 2021, published 2025)
Where two headings read alike, the source gives them in different places.

How the values were obtained:
[1] = biological target: human Cereblon WT GST-tagged protein (Homo sapiens (Human), UniProt Q96SW2); assay: CRBN binding, HTRF (CEREBLON BINDING kit)
Protocol: Determination of CRBN-Binding Affinity of Compounds
The CEREBLON BINDING kits (specification: 10,000 tests; product number: Catalog #64BDCRBNPEH; CISBIO company) was used to determine the CRBN binding ability of the compounds to be tested through a HTRF method (homogeneous time-resolved fluorescence). The specific methods are as follows: • 1. […] Then, 2.5 μL of (human Cereblon WT GST-tagged protein) solution was added to each well. Finally, 5 μL of the uniformly mixed thalidomide-Red reagent and GST Eu antibody working solution were added to each of the above wells. […] The blank control wells were sequentially added with 2.5 μL of diluent #9 (1×) solution, 2.5 μL of ligand binding buffer, and 5 μL of uniformly mixed thalidomide-Red reagent and GST Eu antibody working solution. • 4. […] The corresponding CRBN binding inhibition rate was calculated using the following method: […]

WSU-DLCL2 = assay: CCK-8 tumor cell proliferation, WSU-DLCL2; format: cell-based, Human; settings: read-out: IC50 for inhibiting the proliferation of tumor cells, WSU-DLCL2
Protocol: (§1) Determination of half inhibitory concentration (IC50) of the compounds against tumor cells:
(§2) The tumor cells used herein were cultured in a cell culture medium listed in table 6 at 37° C. in an incubator with 5% CO2.
(§3) After the cells were treated with the compounds of the present disclosure for a period of time (the treatment times listed in Table 7), the cell viability detection reagent was added to the culture medium for cell viability assessment according to the instructions provided with the CCK-8 kit. […] The growth inhibition of the compounds of the present disclosure on cells was plotted by Prism Graphpad software, and the IC50 values of the compounds of the present disclosure were calculated therefrom.

DU-145 = assay: CCK-8 tumor cell proliferation, DU-145; format: cell-based, Human; settings: DU-145, 96 h, read-out: IC50 for inhibiting the proliferation of tumor cells, DU-145
Protocol: as §1, §2, §3

LNcap = assay: CCK-8 tumor cell proliferation, LNcap; format: cell-based, Human; settings: 96 h, read-out: IC50 for inhibiting the proliferation of tumor cells, LNcap
Protocol: as §1
(§4) The tumor cells used herein were cultured in a cell culture medium listed in table 6 at 37° C. in an incubator with 5% CO2. Prior to experimentation, all cells used were correctly identified by STR profiling, and tested negative for mycoplasma through routine screenings.
(§5) IC50 values of the compounds of the present disclosure (including the compounds in Table 4 and compounds of examples 1-72) were measured using the Meilun Cell Counting Kit-S kit from Dalian Meilun Biotech Co., Ltd. Assay details are as follows: tumor cells were seeded in a 96-well plate at a density listed in Table 7. After 24 h, 100 μL of the inoculated cells were treated with 0.5 μL of the compounds of the present disclosure (including the compounds in Table 4 and compounds of examples 1-72) at 10 different successively decreasing concentrations (starting at the highest concentration of 10 μM; 5-fold serial dilutions). After the cells were treated with the compounds of the present disclosure for a period of time (the treatment times listed in Table 7), the cell viability detection reagent was added to the culture medium for cell viability assessment according to the instructions provided with the CCK-8 kit. […] The growth inhibition of the compounds of the present disclosure on cells was plotted by Prism Graphpad software, and the IC50 values of the compounds of the present disclosure were calculated therefrom.

MM.1R = assay: CCK-8 tumor cell proliferation, MM.1R; format: cell-based; settings: 72 h, read-out: IC50 for inhibiting the proliferation of tumor cells, MM.1R
Protocol: as §1, §2, §3

MGC80-3 = assay: CCK-8 tumor cell proliferation, MGC80-3; format: cell-based, Human; settings: read-out: IC50 for inhibiting the proliferation of tumor cells, MGC80-3
Protocol: as §1, §4, §5

Hep3B2.1-7 = assay: CCK-8 tumor cell proliferation, Hep3B2.1-7; format: cell-based, Human; settings: Hep3B2.1-7, 96 h, read-out: IC50 for inhibiting the proliferation of tumor cells, Hep3B2.1-7
Protocol: as §1, §4, §5

[2] = Homo sapiens, MGC-803, MGC80-3, 96 h
[3] = Homo sapiens, WSUDLCL2, WSU-DLCL2, 96 h

human Cereblon WT GST-tagged protein, sequence (Q96SW2 whole entry): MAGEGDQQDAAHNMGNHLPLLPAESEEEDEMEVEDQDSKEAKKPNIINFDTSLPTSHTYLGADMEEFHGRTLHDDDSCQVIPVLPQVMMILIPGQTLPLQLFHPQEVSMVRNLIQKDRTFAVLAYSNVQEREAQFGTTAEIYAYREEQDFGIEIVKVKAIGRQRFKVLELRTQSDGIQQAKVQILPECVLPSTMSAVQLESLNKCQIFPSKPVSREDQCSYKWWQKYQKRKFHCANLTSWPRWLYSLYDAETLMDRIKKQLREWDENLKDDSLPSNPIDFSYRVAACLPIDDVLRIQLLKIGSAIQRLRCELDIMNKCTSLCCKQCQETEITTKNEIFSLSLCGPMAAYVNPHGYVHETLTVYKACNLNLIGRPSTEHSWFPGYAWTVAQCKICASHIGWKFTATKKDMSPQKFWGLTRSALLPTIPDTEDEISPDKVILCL

Row | SMILES | IC50 [1] [nM] | IC50 (WSU-DLCL2; WSU-DLCL2, 96 h) [nM] | IC50 (DU-145) [nM] | IC50 (LNcap) [nM] | IC50 (MM.1R) [nM] | IC50 (MGC80-3; MGC80-3, 96 h) [nM] | IC50 (Hep3B2.1-7; Homo sapiens) [nM] | IC50 (LNcap; Homo sapiens) [nM] | IC50 (MGC80-3; [2]) [nM] | IC50 (WSU-DLCL2; [3]) [nM] | IC50 (DU-145; Homo sapiens) [nM] | IC50 (Hep3B2.1-7) [nM]
1 | O=C1CCC(N2C(=O)c3ccc(N4C5CNCC4C5)cc3C2=O)C(=O)N1 (stereo not drawn) [GT-03100, 5-(3,6-diazabicyclo[3.1.1]heptan-6-yl)-2-(2,6-dioxopiperidin-3-yl)isoindoline-1,3-dione] | 9800 |  |  |  |  |  |  |  |  |  |  | 
2 | N#Cc1ccc(OC2CCC(NC(=O)c3ccc(N4CCC(CN5C6CC5CN(c5ccc7c(c5)C(=O)N(C5CCC(=O)NC5=O)C7=O)C6)CC4)nn3)CC2)cc1Cl (stereo not drawn) [GT-03490, N-((1r,4r)-4-(3-chloro-4-cyanophenoxy)cyclohexyl)-6-(4-((3-(2-(2,6-dioxopiperidin-3-yl)-1,3-dioxoisoindolin-5-yl)-3,6-diazabicyclo[3.1.1]heptan-6-yl)methyl)piperidin-1-yl)pyridazine-3-carboxamide] |  | 100 to 500 | 1000 to 5000 | 100 to 500 | 100 to 500 | 100 to 500 |  |  |  |  |  | 
3 | N#Cc1ccc(OC2CCC(NC(=O)c3ccc(N4C5CC4CN(CC4CCN(c6cc7c(cc6F)C(=O)N(C6CCC(=O)NC6=O)C7=O)CC4)C5)nn3)CC2)cc1Cl (stereo not drawn) [GT-03451, N-((1r,4r)-4-(3-chloro-4-cyanophenoxy)cyclohexyl)-6-(3-((1-(2-(2,6-dioxopiperidin-3-yl)-6-fluoro-1,3-dioxoisoindolin-5-yl)piperidin-4-yl)methyl)-3,6-diazabicyclo[3.1.1]heptan-6-yl)pyridazine-3-carboxamide] |  | 100 to 500 | 1000 to 5000 | 100 to 500 | 100 to 500 | 500 to 1000 |  |  |  |  |  | 
4 | N#Cc1ccc(OC2CCC(NC(=O)c3ccc(N4CCC(CN5C6CC5CN(c5cc7c(cc5F)C(=O)N(C5CCC(=O)NC5=O)C7=O)C6)CC4)nn3)CC2)cc1Cl (stereo not drawn) [GT-03487, N-((1r,4r)-4-(3-chloro-4-cyanophenoxy)cyclohexyl)-6-(4-((3-(2-(2,6-dioxopiperidin-3-yl)-6-fluoro-1,3-dioxoisoindolin-5-yl)-3,6-diazabicyclo[3.1.1]heptan-6-yl)methyl)piperidin-1-yl)pyridazine-3-carboxamide] |  | 100 to 500 | 1000 to 5000 | 100 to 500 | 100 to 500 | 100 to 500 |  |  |  |  |  | 
5 | N#Cc1ccc(OC2CCC(NC(=O)c3ccc(N4CC5CCC(C4)N5CC4CCN(c5cc6c(cc5F)C(=O)N(C5CCC(=O)NC5=O)C6=O)CC4)nn3)CC2)cc1Cl (stereo not drawn) [GT-03450, N-((1r,4r)-4-(3-chloro-4-cyanophenoxy)cyclohexyl)-6-(8-((1-(2-(2,6-dioxopiperidin-3-yl)-6-fluoro-1,3-dioxoisoindolin-5-yl)piperidin-4-yl)methyl)-3,8-diazabicyclo[3.2.1]octan-3-yl)pyridazine-3-carboxamide] |  | 500 to 1000 | 1000 to 5000 | 100 to 500 | 100 to 500 | 100 to 500 |  |  |  |  |  | 
6 | CC1(C)[C@H](NC(=O)c2ccc(N3CCC(CN4C5CC4CN(c4cc6c(cc4F)C(=O)N(C4CCC(=O)NC4=O)C6=O)C5)CC3)nc2)C(C)(C)[C@H]1Oc1ccc(C#N)c(Cl)c1 (stereo partly drawn) [GT-03404, N-((1r,3r)-3-(3-chloro-4-cyanophenoxy)-2,2,4,4-tetramethylcyclobutyl)-6-(4-((3-(2-(2,6-dioxopiperidin-3-yl)-6-fluoro-1,3-dioxoisoindolin-5-yl)-3,6-diazabicyclo[3.1.1]heptan-6-yl)methyl)piperidin-1-yl)nicotinamide] |  |  |  |  |  |  | 100 to 500 | 500 to 1000 | 100 to 500 |  |  | 
7 | CC1(C)[C@H](NC(=O)c2ccc(N3CCC(CN4CC5CC(C4)N5c4ccc5c(c4)C(=O)N(C4CCC(=O)NC4=O)C5=O)CC3)nc2)C(C)(C)[C@H]1Oc1ccc(C#N)c(Cl)c1 (stereo partly drawn) [GT-03427, N-((1r,3r)-3-(3-chloro-4-cyanophenoxy)-2,2,4,4-tetramethylcyclobutyl)-6-(4-((6-(2-(2,6-dioxopiperidin-3-yl)-1,3-dioxoisoindolin-5-yl)-3,6-diazabicyclo[3.1.1]heptan-3-yl)methyl)piperidin-1-yl)nicotinamide] |  |  |  |  |  |  |  | 500 to 1000 | 100 to 500 | 100 to 500 | 1000 to 5000 | 
8 | CC1(C)[C@H](NC(=O)c2ccc(N3CCC(CN4C5CCC4CN(c4ccc6c(c4)C(=O)N(C4CCC(=O)NC4=O)C6=O)C5)CC3)nc2)C(C)(C)[C@H]1Oc1ccc(C#N)c(Cl)c1 (stereo partly drawn) [GT-03426, N-((1r,3r)-3-(3-chloro-4-cyanophenoxy)-2,2,4,4-tetramethylcyclobutyl)-6-(4-((3-(2-(2,6-dioxopiperidin-3-yl)-1,3-dioxoisoindolin-5-yl)-3,8-diazabicyclo[3.2.1]octan-8-yl)methyl)piperidin-1-yl)nicotinamide] |  |  |  |  | 100 to 500 |  | ≤ 50 | 50 to 100 | 50 to 100 |  |  | 
9 | CC1(C)[C@H](NC(=O)c2ccc(N3CCC(CN4C5CCC4CN(c4cc6c(cc4F)C(=O)N(C4CCC(=O)NC4=O)C6=O)C5)CC3)nc2)C(C)(C)[C@H]1Oc1ccc(C#N)c(Cl)c1 (stereo partly drawn) [GT-03482, N-((1r,3r)-3-(3-chloro-4-cyanophenoxy)-2,2,4,4-tetramethylcyclobutyl)-6-(4-((3-(2-(2,6-dioxopiperidin-3-yl)-6-fluoro-1,3-dioxoisoindolin-5-yl)-3,8-diazabicyclo[3.2.1]octan-8-yl)methyl)piperidin-1-yl)nicotinamide] |  |  |  |  | 100 to 500 |  | 100 to 500 | 50 to 100 | 50 to 100 | 100 to 500 | 100 to 500 | 
10 | N#Cc1ccc(OC2CCC(NC(=O)c3ccc(N4CCC(CN5C6CCC5CN(c5ccc7c(c5)C(=O)N(C5CCC(=O)NC5=O)C7=O)C6)CC4)nn3)CC2)cc1Cl (stereo not drawn) [GT-03489, N-((1r,4r)-4-(3-chloro-4-cyanophenoxy)cyclohexyl)-6-(4-((3-(2-(2,6-dioxopiperidin-3-yl)-1,3-dioxoisoindolin-5-yl)-3,8-diazabicyclo[3.2.1]octan-8-yl)methyl)piperidin-1-yl)pyridazine-3-carboxamide] |  | 100 to 500 | 1000 to 5000 | 100 to 500 | 500 to 1000 | 100 to 500 |  |  |  |  |  | 100 to 500
11 | CC1(C)[C@H](NC(=O)c2ccc(N3CCC(CN4CC5CCC(C4)N5c4ccc5c(c4)C(=O)N(C4CCC(=O)NC4=O)C5=O)CC3)nc2)C(C)(C)[C@H]1Oc1ccc(C#N)c(Cl)c1 (stereo partly drawn) [GT-03425, N-((1r,3r)-3-(3-chloro-4-cyanophenoxy)-2,2,4,4-tetramethylcyclobutyl)-6-(4-((8-(2-(2,6-dioxopiperidin-3-yl)-1,3-dioxoisoindolin-5-yl)-3,8-diazabicyclo[3.2.1]octan-3-yl)methyl)piperidin-1-yl)nicotinamide] |  |  |  |  | 100 to 500 |  | ≤ 50 | 50 to 100 | ≤ 50 | 50 to 100 | 500 to 1000 | 
12 | CC1(C)[C@H](NC(=O)c2ccc(N3CCC(CN4C5CC4CN(c4ccc6c(c4)C(=O)N(C4CCC(=O)NC4=O)C6=O)C5)CC3)nc2)C(C)(C)[C@H]1Oc1ccc(C#N)c(Cl)c1 (stereo partly drawn) [GT-03471, N-((1r,3r)-3-(3-chloro-4-cyanophenoxy)-2,2,4,4-tetramethylcyclobutyl)-6-(4-((3-(2-(2,6-dioxopiperidin-3-yl)-1,3-dioxoisoindolin-5-yl)-3,6-diazabicyclo[3.1.1]heptan-6-yl)methyl)piperidin-1-yl)nicotinamide] |  |  |  |  |  |  | 100 to 500 | 500 to 1000 | 100 to 500 | 1000 to 5000 |  | 
